Measured values: US11607458B2 (Georgia State University Research Foundation, Inc, priority 2017, dated 2023)

Key:
[1] = HPLC studies of reaction kinetics of tetrazine prodrugs with cyclooctyne alkynes (Kobs, second-order rate constant k2); type: physicochemical; details: for Kobs: prodrug 25 μM
Protocol: Stock solution preparation. Each of the tetrazine prodrugs (compounds 1b, 1c, and 1d) was dissolved in DMSO to afford a 500-μM stock solution. Each of the alkynes (compounds 2a, 2b, 2c, and 2d) was dissolved in DMSO to afford a 50-mM stock solution. Doxorubicin (Dox) and dansylamino compound (DA) 1.1b were each dissolved in DMSO to afford 1-mM stock solutions.
(§1) HPLC method A.: mobile phase A (10 mM NaH2PO4 in water, pH=5.0) and mobile phase B (ACN), flow rate: 1 mL/min, running time: 30 min, the gradient elution method: 25% B from 0 to 6 min, 25% to 50% B from 6 to 8 min, 50% B from 8 to 15 min, 50% to 99% B from 15 to 20 min, 99% B from 20 to 25 min, 99% to 25% B from 25 to 30 min. Detection wavelength: 256 nm. Column: Waters C18 3.5 μM, 4.6×100 mm. Injection volume: 20 μL.
as §1, with “method B:” for “method A.:”, “method: 30%” for “method: 25%”, “min, 30%” for “min, 25%”, “25 min.” for “25 min,”, “to 30%” for “to 25%”, “Detection wavelength 1: 256, detection wavelength 2: 337” for “Detection wavelength: 256”
(§2) General procedures HPLC studies of reaction kinetics. To three 20-ml vials with 9 mL PBS were added a solution of tetrazine prodrug (500 μL, 500 μM). 350 μL, 300 μL and 250 μL DMSO were added to vial respectively, and then 150 μL, 200 μL and 250 μL of the alkyne solution (50 mM in DMSO) were added to the vials to afford final concentrations of alkyne 0.75 mM, 1 mM and 1.25 mM in PBS (10% DMSO, 25 μM prodrug) respectively. The reaction was stirred at r.t or 37° C. respectively. Every 30 min about 500 μL reaction mixtures were taken out and 20 μL of them were injected into the HPLC by the autosampler; the rest of them were poured back to the reaction mixture. (Note: In the cases of prodrugs 1d or 1b reacting with alkyne 2d at 37° C., the final concentrations of 2d in the kinetic studies were 250 μM, 300 μM and 350 μM).
Determination of second-order rate constants. The reaction rate constant, kobs, was calculated for each concentration of the alkyne by fitting the prodrug areas versus time using eq. 1: Y=A exp(−kobst) eq. 1 where Y is the prodrug area, and t is time. The pseudo-first-order rate constant, kobs, was then plotted against the concentration of alkyne to yield the second-order rate constant using eq 2: kobs=k2[Alkyne] eq. 2 where k2 is the second-order rate constant.

[2] = Release of the parent drug (Dox / dansyl amine) from prodrugs treated with alkynes, monitored by HPLC; type: physicochemical; details: alkyne 2b; r.t; PBS 10% DMSO
Protocol: (§3) Standard curve of Dox concentration measurement. To four HPLC vials containing 0.9 mL PBS (size: 1.5 mL) were added 25, 15, 20, 10 μL Dox stock solution (1 mM) respectively. Then defined amounts DMSO (975, 985, 980, and 990 μL) were added to each vial to afford final concentration of four vials were 25, 15, 20, 10 μM in PBS (10% DMSO), respectively. The samples were analyzed with HPLC method A. Dox retention time: 4.0 min.
as §3, with “for DA” for “of Dox”, “B. DA” for “A. Dox”, “5.8” for “4.0”
as §2
Results. The results from the reaction kinetics studies of the tetrazine-cyclooctyne system are summarized below in Table 4. Prodrugs 1d or 1b (25 μM) were treated with alkynes 2d, 2c ,2a, or 2b at different concentrations at room temperature (r.t.) or 37° C., respectively. The prodrug consumption and release of the parent drug were monitored by HPLC (Table 4).

## COc1cccc2c1C(=O)c1c(O)c3c(c(O)c1C2=O)CC(O)(C(=O)CO)CC3OC1CC(NC(=O)c2nnc(-c3ccc(OCc4cn(CCCCCCCCC[P+](c5ccccc5)(c5ccccc5)c5ccccc5)nn4)cc3)nn2)C(O)C(C)O1 (stereo not drawn) [1c]
[1]; 37° C., alkyne 2b 0.75 mM, Expt. 1
  Kobs: 0.711 h⁻¹
[1]; 37° C., alkyne 2b 0.75 mM, Expt. 2
  Kobs: 0.701 h⁻¹
[1]; 37° C., alkyne 2b 0.75 mM, Expt. 3
  Kobs: 0.714 h⁻¹
[1]; 37° C., alkyne 2b 1.00 mM, Expt. 1
  Kobs: 0.921 h⁻¹
[1]; 37° C., alkyne 2b 1.00 mM, Expt. 2
  Kobs: 0.902 h⁻¹
[1]; 37° C., alkyne 2b 1.00 mM, Expt. 3
  Kobs: 0.871 h⁻¹
[1]; 37° C., alkyne 2b 1.25 mM, Expt. 1
  Kobs: 1.21 h⁻¹
[1]; 37° C., alkyne 2b 1.25 mM, Expt. 2
  Kobs: 1.15 h⁻¹
[1]; 37° C., alkyne 2b 1.25 mM, Expt. 3
  Kobs: 1.09 h⁻¹
[1]; alkyne 2b, 37° C., PBS containing 10% DMSO, n = 3
  k2 at 37° C. (second order rate constant): 0.25 ± 0.05 M⁻¹ s⁻¹
[1]; alkyne 2b, r.t, PBS containing 10% DMSO, n = 3
  k2 at r.t (second order rate constant): 0.091 ± 0.013 M⁻¹ s⁻¹
[1]; r.t, alkyne 2b 0.75 mM, Expt. 1
  Kobs: 0.296 h⁻¹
[1]; r.t, alkyne 2b 0.75 mM, Expt. 2
  Kobs: 0.305 h⁻¹
[1]; r.t, alkyne 2b 0.75 mM, Expt. 3
  Kobs: 0.291 h⁻¹
[1]; r.t, alkyne 2b 1.00 mM, Expt. 1
  Kobs: 0.331 h⁻¹
[1]; r.t, alkyne 2b 1.00 mM, Expt. 2
  Kobs: 0.356 h⁻¹
[1]; r.t, alkyne 2b 1.00 mM, Expt. 3
  Kobs: 0.359 h⁻¹
[1]; r.t, alkyne 2b 1.25 mM, Expt. 1
  Kobs: 0.445 h⁻¹
[1]; r.t, alkyne 2b 1.25 mM, Expt. 2
  Kobs: 0.465 h⁻¹
[1]; r.t, alkyne 2b 1.25 mM, Expt. 3
  Kobs: 0.474 h⁻¹
[2]
  Time of the Dox peak (in brackets in the Dox Peak % cell): 18 h
